The text below walks through data of patent US10106524B2, “2,3,4,5-tetrahydropyridin-6-amine and 3,4-dihydro-2H-pyrrol-5-amine compound inhibitors of beta-secretase” (Janssen Pharmaceutica NV, priority 2015, dated 2018).

Some results are limits rather than exact numbers.

The term melting point denotes the temperature, or range, at which the solid turns liquid.

The target of series [1] is T1, recombinant BACE2 protein (Homo sapiens, UniProt Q9Y5Z0).
T1 construct: recombinant BACE2 protein in a final concentration of 0.4 μg/nil
T1 sequence (Q9Y5Z0 63-518): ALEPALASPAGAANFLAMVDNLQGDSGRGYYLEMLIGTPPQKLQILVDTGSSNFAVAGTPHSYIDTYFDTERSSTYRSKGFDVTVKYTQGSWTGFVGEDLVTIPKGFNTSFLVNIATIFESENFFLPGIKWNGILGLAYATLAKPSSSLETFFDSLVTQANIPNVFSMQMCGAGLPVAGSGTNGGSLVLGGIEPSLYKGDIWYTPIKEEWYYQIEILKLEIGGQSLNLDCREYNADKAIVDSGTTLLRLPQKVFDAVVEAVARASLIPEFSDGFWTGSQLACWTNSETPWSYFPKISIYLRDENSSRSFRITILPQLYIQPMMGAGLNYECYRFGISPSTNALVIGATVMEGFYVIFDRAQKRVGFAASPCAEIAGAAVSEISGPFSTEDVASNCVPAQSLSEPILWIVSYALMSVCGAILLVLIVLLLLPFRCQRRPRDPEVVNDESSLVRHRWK
Briefly: BACE2 biochemical FRET based assay. The conditions noted are these: BACE2 0.4 μg/nil, 450 minutes, 10 μM substrate, pH 5.0; read-out: Biochemical FRET based assay pIC50 (BACE2) (converted). The text has this:
BACE2 Biochemical FRET Based Assay
(§1) This assay is a Fluorescence Resonance Energy Transfer Assay (FRET) based assay. The substrate for this assay contains the ‘Swedish’ Lys-Met/Asn-Leu mutation of the amyloid precursor protein (APP) beta-secretase cleavage site. This substrate also contains two fluorophores: (7-methoxycoumarin-4-yl) acetic acid (Mca) is a fluorescent donor with excitation wavelength at 320 nm and emission at 405 nm and 2,4-Dinitrophenyl (Dnp) is a proprietary quencher acceptor. […] Upon cleavage by the beta-secretase, the fluorophore Mca is separated from the quenching group Dnp, restoring the full fluorescence yield of the donor. The increase in fluorescence is linearly related to the rate of proteolysis.
Briefly in a 384-well format recombinant BACE2 protein in a final concentration of […] is incubated for 450 minutes at room temperature with 10 μM substrate in incubation buffer (50 mM Citrate buffer pH 5.0, 0.05% PEG, no DMSO) in the absence or presence of compound. Next the amount of proteolysis is directly measured by fluorescence measurement at T=0 and T=450 (excitation at 320 nm and emission at 405 nm). Results are expressed in RFU (Relative Fluorescence Units), as difference between T450 and T0.
(§2) A best-fit curve is fitted by a minimum sum of squares method to the plot of % Controlmin versus compound concentration. From this an IC50 value (inhibitory concentration causing 50% inhibition of activity) can be obtained.

Series [2] concerns Abeta total produced and secreted by SKNBE2 cells expressing hAPP695. Briefly: Cellular αLisa assay in SKNBE2 cells - Abeta total. The class given is cell-based. The conditions noted are these: Homo sapiens, incubated for 18 hours, read-out: Cellular αLisa assay in SKNBE2 cells Abeta total pIC50 (converted). On the procedure:
(§3) Cellular αLisa Assay in SKNBE2 Cells
(§4) In two αLisa assays the levels of Abeta total and Abeta 1-42 produced and secreted into the medium of human neuroblastoma SKNBE2 cells are quantified. The assay is based on the human neuroblastoma SKNBE2 expressing the wild type Amyloid Precursor Protein (hAPP695). The compounds are diluted and added to these cells, incubated for 18 hours and then measurements of Abeta 1-42 and Abeta total are taken. Abeta total and Abeta 1-42 are measured by sandwich αLisa. αLisa is a sandwich assay using biotinylated antibody AbN/25 attached to streptavidin coated beads and antibody Ab4G8 or cAb42/26 conjugated acceptor beads for the detection of Abeta total and Abeta 1-42 respectively. In the presence of Abeta total or Abeta 1-42, the beads come into close proximity. The excitation of the donor beads provokes the release of singlet oxygen molecules that trigger a cascade of energy transfer in the acceptor beads, resulting in light emission. Light emission is measured after 1 hour incubation (excitation at […] and emission at 615 nm).
as §2

Series [3] addresses T2, recombinant BACE1 protein (Homo sapiens, UniProt P56817).
T2 construct: recombinant BACE1 protein in a final concentration of 1 μg/ml
Briefly: BACE1 biochemical FRET based assay - Method 2. The conditions noted are these: BACE1 0.04 μg/ml, 450 minutes, 20 μM substrate, pH 5.0; read-out: Biochemical FRET based assay- Method 2 pIC50 (converted).
Source text: (§5) BACE1 Biochemical FRET Based Assay
as §1, with “this assay is an APP derived 13 amino acids peptide that contains the” for “this assay contains the”, “cleavage by BACE1, the fluorophore” for “cleavage by the beta-secretase, the fluorophore”
Briefly in a 384-well format recombinant BACE1 protein in a final concentration of 0.04 μg/ml is incubated for 450 minutes at room temperature with 20 μM substrate in incubation buffer (50 mM Citrate buffer pH 5.0, 0.05% PEG) in the presence of compound or DMSO. Next the amount of proteolysis is directly measured by fluorescence measurement (excitation at 320 nm and emission at 405 nm) at different incubation times (0, 30, 60, 90, 120 and 450 min). For every experiment a time curve (every 30 min between 0 min and 120 min) is used to determine the time where we find the lowest basal signal of the high control. The signal at this time (Tx) is used to subtract from the signal at 450 min. Results are expressed in RFU, as difference between T450 and Tx.
as §2

For series [4], the system named is Abeta 1-42 produced and secreted by SKNBE2 cells expressing hAPP695. Briefly: Cellular αLisa assay in SKNBE2 cells - Abeta 42. The following applies: Homo sapiens, incubated for 18 hours, read-out: Cellular αLisa assay in SKNBE2 cells Abeta 42 pIC50 (converted). The class given is cell-based, human. The method, then:
as §3, §4, §2

The target of series [5] is T2, recombinant BACE1 protein. Briefly: BACE1 biochemical FRET based assay - Method 1. The conditions noted are these: BACE1 1 μg/ml, 120 minutes, 10 μm substrate, pH 5.0; read-out: Biochemical FRET based assay - Method 1 pIC50 (converted).
Source text: as §5
as §1, with “this assay is an APP derived 13 amino acids peptide that contains the” for “this assay contains the”, “cleavage by BACE1, the fluorophore” for “cleavage by the beta-secretase, the fluorophore”
Briefly in a 384-well format recombinant BACE1 protein in a final concentration of 1 μg/ml is incubated for 120 minutes at room temperature with 10 μm substrate in incubation buffer (40 mM Citrate buffer pH 5.0, 0.04% PEG, 4% DMSO) in the absence or presence of compound. Next the amount of proteolysis is directly measured by fluorescence measurement at T=0 and T=120 (excitation at 320 nm and emission at 405 nm). Results are expressed in RFU (Relative Fluorescence Units), as difference between T120 and T0.
as §2

T2 sequence (P56817 46-501): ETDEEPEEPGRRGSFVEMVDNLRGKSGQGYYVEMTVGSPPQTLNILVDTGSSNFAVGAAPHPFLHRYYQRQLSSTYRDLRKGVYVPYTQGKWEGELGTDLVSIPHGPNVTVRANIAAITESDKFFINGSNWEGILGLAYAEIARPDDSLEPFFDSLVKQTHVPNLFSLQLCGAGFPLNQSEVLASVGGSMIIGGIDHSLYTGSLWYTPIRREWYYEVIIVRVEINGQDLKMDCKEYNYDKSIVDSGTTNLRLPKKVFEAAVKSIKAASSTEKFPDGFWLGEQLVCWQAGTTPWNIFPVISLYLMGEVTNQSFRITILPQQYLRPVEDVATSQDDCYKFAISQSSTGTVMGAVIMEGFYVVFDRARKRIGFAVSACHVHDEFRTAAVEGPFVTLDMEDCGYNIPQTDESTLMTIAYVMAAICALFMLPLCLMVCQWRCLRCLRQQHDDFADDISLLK

In turn, `CC1(c2cc(NC(=O)c3ccc(Cl)cn3)ccc2F)N=C(N)CC1C(F)(F)F` (racemic) [Compound 15, (±)-N-(3-((2S*,3R*)-5-amino-2-methyl-3-(trifluoromethyl)-3,4-dihydro-2H-pyrrol-2-yl)-4-fluorophenyl)-5-chloropicolinamide] registered a melting point of 240.62 °C. Besides, in series [1], the IC50 is 912 nM. In addition, the IC50 in series [2] is 129 nM. Besides, the IC50 in series [3] is 490 nM. In series [4], the IC50 was 100 nM.
`Cc1nc(C(=O)Nc2ccc(F)c(C3(C)N=C(N)CC3C(F)(F)F)c2)co1` (racemic) [Compound 16, (±)-N-[3-1[(2S*,3R*)-5-amino-2-methyl-3-(trifluoromethyl)-3,4-dihydropyrrol-2-yl]-4-fluoro-phenyl]-2-methyl-oxazole-4-carboxamide] came in with a melting point of 207.05 °C. In addition, the IC50 in series [1] is 537 nM. Besides, in series [2], the IC50 was 240 nM. In series [3], the IC50 was 1150 nM. In addition, the IC50 in series [4] is 251 nM.
The compound `COc1cccnc1Nc1ccc(F)c(C2(C)N=C(N)CC2C(F)(F)F)c1` (racemic) [Compound 21, (+)-N-[3-[(2S*,3R*)-5-amino-2-methyl-3-(trifluoromethyl)-3,4-dihydropyrrol-2-yl]-4-fluoro-phenyl]-3-methoxy-pyridin-2-amine] yielded a melting point of 184.2 °C. In addition, the IC50 in series [1] was 933 nM. For the same compound, the IC50 in series [3] was 2400 nM. Moreover, the IC50 in series [4] was 389 nM.
Turning to `CC1(c2cc(NC(=O)c3ccc(Br)cn3)ccc2F)N=C(N)CC1C(F)(F)F` (racemic) [Compound 40, (±)-N-[3-[(2S*,3R*)-5-amino-2-methyl-3-(trifluoromethyl)-3,4-dihydropyrrol-2-yl]-4-fluoro-phenyl]-5-bromo-pyridine-2-carboxamide], the melting point came to 243.4 °C. Also, the IC50 in series [3] was 324 nM.
Compound `COCCOc1cnc(C(=O)Nc2ccc(F)c([C@@]3(C)N=C(N)C[C@H]3C(F)(F)F)c2)cn1` (relative stereo) [Compound 23, (±)-N-[3-[(2S*,3R*)-5-amino-2-methyl-3-(trifluoromethyl)-3,4-dihydropyrrol-2-yl]-4-fluoro-phenyl]-5-(2-methoxyethoxy)pyrazine-2-carboxamide] returned a melting point of 165.48 °C. In addition, in series [1], the IC50 was above 10000 nM. For the same compound, in series [3], the IC50 is 776 nM. In series [4], the IC50 was 347 nM.
On to `COc1cnc(C(=O)Nc2cccc([C@]3(C)C[C@@H](C(F)(F)F)CC(N)=N3)c2)cn1` [Compound 3, N-{3-[(2S,4R)-6-amino-2-methyl-4-(trifluoromethyl)-2,3,4,5-tetrahydropyridin-2-yl]phenyl}-5-methoxypyrazine-2-carboxamide], for which the melting point turned out to be 171.93 °C. For the same compound, the IC50 in series [5] was 31.6 nM. The IC50 in series [1] was 339 nM. For the same compound, the IC50 in series [2] was 8.71 nM. The IC50 in series [3] was 25.1 nM. Moreover, the IC50 in series [4] was 9.55 nM.
`COc1cnc(C(=O)Nc2cccc([C@]3(C)C[C@H](C(F)(F)F)CC(N)=N3)c2)cn1` [Compound 4, N-{3-[(2S,4S)-6-amino-2-methyl-4-(trifluoromethyl)-2,3,4,5-tetrahydropyridin-2-yl]phenyl}-5-methoxypyrazine-2-carboxamide] returned a melting point of 138.66 °C. Besides, the IC50 in series [5] was above 30200 nM. Besides, the IC50 in series [1] was above 10000 nM. Also, the IC50 in series [2] was 1950 nM. In series [3], the IC50 is above 10000 nM. The IC50 in series [4] was 2340 nM.
Regarding `C[C@@]1(c2cccc(NC(=O)c3ccc(C#N)cn3)c2)C[C@H](C(F)(F)F)CC(N)=N1` [Compound 8, N-[3-[(2S,4S)-6-amino-2-methyl-4-(trifluoromethyl)-4,5-dihydro-3H-pyridin-2-yl]phenyl]-5-cyano-pyridine-2-carboxamide], the IC50 in series [5] is 9770 nM; in series [1], above 10000 nM; in series [2], 2510 nM; in series [3], 6760 nM; in series [4] it was 2290 nM.
Take `COc1cnc(C(=O)Nc2ccc(F)c([C@]3(C)C[C@@H](C(F)(F)F)CC(N)=N3)c2)cn1` [Compound 9, N-{3-[(2S,4R)-6-amino-2-methyl-4-(trifluoromethyl)-4,5-dihydro-3H-pyridin-2-yl]-4-fluoro-phenyl]-5-methoxy-pyrazine-2-carboxamide]: the IC50 in series [5] was 38.9 nM; in series [1] it was 67.6 nM; in series [2], 5.89 nM; in series [3] it was 7.59 nM; in series [4] it was 5.25 nM.
`C[C@@]1(c2cc(NC(=O)c3ccc(C#N)cn3)ccc2F)C[C@@H](C(F)(F)F)CC(N)=N1` [Compound 10] registered a melting point of 205.8 °C. Further, the IC50 in series [5] was 36.3 nM. In series [1], the IC50 was 25.7 nM. The IC50 in series [2] was 3.8 nM. For the same compound, the IC50 in series [3] was 3.63 nM. The IC50 in series [4] was 4.27 nM.
Take `C[C@@]1(c2cc(NC(=O)c3ccc(Cl)cn3)ccc2F)C[C@@H](C(F)(F)F)CC(N)=N1` [Compound 11]: the IC50 in series [5] was 30.9 nM; in series [1] it was 4.07 nM; in series [2], 2 nM; in series [3] it was 2.63 nM; in series [4] it was 2.34 nM.
The compound `C[C@@]1(c2cc(NC(=O)c3ccc(F)cn3)ccc2F)C[C@@H](C(F)(F)F)CC(N)=N1` [Compound 12] registered a melting point of 199.22 °C. In addition, the IC50 in series [5] was 51.3 nM. In addition, the IC50 in series [1] is 10.7 nM. Further, the IC50 in series [2] is 7.76 nM. In addition, the IC50 in series [3] is 15.5 nM. In addition, in series [4], the IC50 was 7.59 nM.
